According to patent US20260028336A1 (Arcus Biosciences, Inc., priority 2022, published 2026):

How the values were obtained:
[1] = system: Jurkat cells; assay: IL-2 secretion assay in CD3/CD28-activated Jurkat cells (AlphaLISA); assay type: cell-based; conditions: Homo sapiens, CD3/CD28 T Cell Activator, 24 h, IL-2 AlphaLISA
Outline: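 Jurkat cells (50,000/well) were preincubated 1 h at 37° C with compound in a 16-point 1:2 series spanning 10 μM to 300 pM final. Cells were then activated with CD3/CD28 T cell activator, and secreted IL-2 was read by AlphaLISA. EC50 came from 4-parameter logistic fits.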

[2] = molecular target: T1, Cbl-b (Homo sapiens, UniProt Q13191); assay: Cbl-b probe displacement HTRF binding assay; conditions: 0.4 nM biotinylated Cbl-b, 150 nM BODIPY probe
T1 construct: biotin (biotinylated)
T1 sequence (Q13191 whole entry, species assumed): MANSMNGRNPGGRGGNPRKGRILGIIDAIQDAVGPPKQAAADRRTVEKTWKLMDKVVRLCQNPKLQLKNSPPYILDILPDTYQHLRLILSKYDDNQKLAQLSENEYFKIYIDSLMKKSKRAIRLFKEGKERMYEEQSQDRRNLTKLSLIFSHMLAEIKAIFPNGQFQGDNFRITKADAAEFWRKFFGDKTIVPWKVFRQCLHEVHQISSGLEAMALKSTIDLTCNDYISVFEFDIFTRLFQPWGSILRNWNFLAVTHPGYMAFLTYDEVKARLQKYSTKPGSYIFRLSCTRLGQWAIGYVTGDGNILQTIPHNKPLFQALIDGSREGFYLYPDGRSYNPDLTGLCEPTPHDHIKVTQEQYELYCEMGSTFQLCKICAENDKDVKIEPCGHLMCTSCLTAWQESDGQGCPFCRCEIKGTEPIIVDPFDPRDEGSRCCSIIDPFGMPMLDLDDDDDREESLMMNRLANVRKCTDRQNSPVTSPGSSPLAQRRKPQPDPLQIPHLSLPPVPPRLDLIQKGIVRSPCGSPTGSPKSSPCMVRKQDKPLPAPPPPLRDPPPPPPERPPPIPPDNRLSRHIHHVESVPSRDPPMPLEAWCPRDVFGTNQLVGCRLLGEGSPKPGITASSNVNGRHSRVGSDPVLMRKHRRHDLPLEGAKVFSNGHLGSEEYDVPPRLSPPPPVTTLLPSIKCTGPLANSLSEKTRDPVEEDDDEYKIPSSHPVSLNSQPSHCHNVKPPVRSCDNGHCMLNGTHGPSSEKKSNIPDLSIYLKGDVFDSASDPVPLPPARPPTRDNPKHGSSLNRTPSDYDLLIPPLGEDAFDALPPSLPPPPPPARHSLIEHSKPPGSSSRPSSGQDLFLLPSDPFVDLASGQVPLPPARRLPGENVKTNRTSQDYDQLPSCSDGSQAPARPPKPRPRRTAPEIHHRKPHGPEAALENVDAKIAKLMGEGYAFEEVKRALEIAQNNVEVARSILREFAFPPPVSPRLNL
Outline: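 Biotinylated Cbl-b was preincubated with compound for 60 min at room temperature in HEPES/NaCl/Triton/TCEP/BSA buffer. BODIPY probe was added for 15 min, followed by streptavidin-terbium, and the HTRF signal was read. Displacement was normalised to DMSO and no-protein controls, and affinity was obtained from a four-parameter dose-response fit.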

An EC50 [1] of 0.1 to 1 µM and an IC50 [2] of 0.1 to 1 µM were found for `C[C@H]1CCCN(Cc2cc3c(C4CC4)cn(-c4cccc(C5(Cn6ccnn6)CC(F)(F)C5)c4)c(=O)c3[nH]2)C1` [Example 123, 4-cyclopropyl-6-[3-[3,3-difluoro-1-(triazol-1-ylmethyl)cyclobutyl]phenyl]-2-[[(3S)-3-methylpiperidin-1-yl]methyl]-1H-pyrrolo[2,3-c]pyridin-7-one] in this work.

`C[C@H]1CCCN(Cc2nc3c(C4CC4)cn(-c4cccc(C5(c6nncn6C)CC6(CC6)C5)c4)c(=O)c3[nH]2)C1` [Example 111, 7-cyclopropyl-2-[[(3S)-3-methylpiperidin-1-yl]methyl]-5-[3-[5-(4-methyl-1,2,4-triazol-3-yl)spiro[2.3]hexan-5-yl]phenyl]-3H-imidazo[4,5-c]pyridin-4-one] was tested, and the EC50 [1] was < 0.1 µM and the IC50 [2] was < 0.1 µM.

With `CC1CC(c2cccc(-n3cc(C4CC4)c4cc(CNC5(CO)CCC5)[nH]c4c3=O)c2)(c2nncn2C)C1` (stereo not drawn) [Example 42, 4-cyclopropyl-2-({[1-(hydroxymethyl)cyclobutyl]amino}methyl)-6-{3-[3-methyl-1-(4-methyl-4H-1,2,4-triazol-3-yl)cyclobutyl]phenyl}-1H,6H,7H-pyrrolo[2,3-c]pyridin-7-one] the EC50 [1] was < 0.1 µM and the IC50 [2] was < 0.1 µM.

`Cn1cnnc1C1(c2cccc(-n3cc(C4CC4)c4cc(CN[C@@H]5CCOC5)[nH]c4c3=O)c2)CC(F)(F)C1` [Example 91, 4-cyclopropyl-6-{3-[3,3-difluoro-1-(4-methyl-4H-1,2,4-triazol-3-yl)cyclobutyl]phenyl}-2-{[(oxolan-3-yl)amino]methyl}-1H,6H,7H-pyrrolo[2,3-c]pyridin-7-one] was tested, and the EC50 [1] was > 5 µM and the IC50 [2] was 0.1 to 1 µM.

For `Cn1cncc1-c1c[nH]c2c(=O)n(-c3cccc([C@]4(c5nncn5C)C[C@@H](C)C4)c3)cc(C3CC3)c12` (single isomer, unassigned) [Example 34], the EC50 [1] was 1 to 5 µM and the IC50 [2] was < 0.1 µM.

`CC(O)C1(NCc2cc3c(C4CC4)cn(-c4cccc(C5(c6nncn6C)CC(F)(F)C5)c4)c(=O)c3[nH]2)CC1` (stereo not drawn) [Example 84, 4-cyclopropyl-6-{3-[3,3-difluoro-1-(4-methyl-4H-1,2,4-triazol-3-yl)cyclobutyl]phenyl}-2-({[1-(1-hydroxyethyl)cyclopropyl]amino}methyl)-1H,6H,7H-pyrrolo[2,3-c]pyridin-7-one] was tested, and the EC50 [1] was 1 to 5 µM and the IC50 [2] was < 0.1 µM.

With `Cn1cnnc1C1(c2cccc(-n3cc(C4CC4)c4cc(CN[C@H]5COC[C@@H]5O)[nH]c4c3=O)c2)CC(F)(F)C1` [Example 92] the EC50 [1] was > 5 µM and the IC50 [2] was 0.1 to 1 µM.

For `CC1CC(c2cccc(-n3cc(C(=O)O)c4cn[nH]c4c3=O)c2)(c2nncn2C)C1` (mixture of isomers) [Example 141, 7-Oxo-6-{3-[(1R,3S)-3-methyl-1-(4-methyl-4H-1,2,4-triazol-3-yl)cyclobutyl]phenyl}-1H,6H,7H-pyrazolo[3,4-c]pyridine-4-carboxylic acid], the EC50 [1] was > 5 µM and the IC50 [2] was 1 to 5 µM.

With `C[C@H]1CCCN(Cc2cc3c(C4CC4)cn(-c4cccc(C5(c6nncn6C(F)F)CC6(CC6)C5)c4)c(=O)c3[nH]2)C1` [Example 150, 4-cyclopropyl-6-[3-[5-[4-(difluoromethyl)-1,2,4-triazol-3-yl]spiro[2.3]hexan-5-yl]phenyl]-2-[[(3S)-3-methylpiperidin-1-yl]methyl]-1H-pyrrolo[2,3-c]pyridin-7-one] the EC50 [1] was < 0.1 µM and the IC50 [2] was < 0.1 µM.

`COC1CC(c2cccc(-n3cc(C4CC4)c4cc(CN5CCO[C@H](C)C5)[nH]c4c3=O)c2)(c2nncn2C)C1` (stereo partly drawn) [Example 103, 4-cyclopropyl-6-[3-[3-methoxy-1-(4-methyl-1,2,4-triazol-3-yl)cyclobutyl]phenyl]-2-[[(2R)-2-methylmorpholin-4-yl]methyl]-1H-pyrrolo[2,3-c]pyridin-7-one] was tested, and the EC50 [1] was 0.1 to 1 µM and the IC50 [2] was < 0.1 µM.

`C[C@H]1CCCN(Cc2cc3c(C4CC4)cn(-c4cccc(C(O)(c5nncn5C)C5CCC5)c4)c(=O)c3[nH]2)C1` (stereo partly drawn) [Example 155, 6-[3-[cyclobutyl-hydroxy-(4-methyl-1,2,4-triazol-3-yl)methyl]phenyl]-4-cyclopropyl-2-[[(3S)-3-methylpiperidin-1-yl]methyl]-1H-pyrrolo[2,3-c]pyridin-7-one] was tested, and the EC50 [1] was 0.1 to 1 µM and the IC50 [2] was < 0.1 µM.

`C[C@H]1CCCN(Cc2cc3c(C4CC4)cn(-c4cccc(C5(c6nccn6C)CC(F)(F)C5)c4)c(=O)c3[nH]2)C1` [Example 128, 4-cyclopropyl-6-[3-[3,3-difluoro-1-(1-methylimidazol-2-yl)cyclobutyl]phenyl]-2-[[(3S)-3-methylpiperidin-1-yl]methyl]-1H-pyrrolo[2,3-c]pyridin-7-one] was tested, and the EC50 [1] was 0.1 to 1 µM and the IC50 [2] was < 0.1 µM.

With `CC1CC(c2cccc(-n3cc(C4CC4)c4cc(CN[C@@H]5COC[C@@H]5O)[nH]c4c3=O)c2)(c2nncn2C)C1` (stereo partly drawn) [Example 40, 4-cyclopropyl-2-({[(3R,4R)-4-hydroxyoxolan-3-yl]amino}methyl)-6-{3-[3-methyl-1-(4-methyl-4H-1,2,4-triazol-3-yl)cyclobutyl]phenyl}-1H,6H,7H-pyrrolo[2,3-c]pyridin-7-one] the EC50 [1] was 0.1 to 1 µM and the IC50 [2] was < 0.1 µM.

In the case of `CC1CC(c2cccc(-n3cc(C4CC4)c4c(-c5cnn(C)c5)c[nH]c4c3=O)c2)(c2nncn2C)C1` (mixture of isomers) [Example 131, 4-Cyclopropyl-3-(1-methyl-1H-pyrazol-4-yl)-6-{3-[(1R,3S)-3-methyl-1-(4-methyl-4H-1,2,4-triazol-3-yl)cyclobutyl]phenyl}-1H,6H,7H-pyrrolo[2,3-c]pyridin-7-one], the EC50 [1] is reported as > 5 µM and the IC50 [2] is reported as < 0.1 µM.

With `Cn1cnnc1C1(c2cccc(-n3cc(C4CC4)c4cc(CN5CCC6(CC6)C5)[nH]c4c3=O)c2)CC(F)(F)C1` [Example 88, 2-({5-azaspiro[2.4]heptan-5-yl}methyl)-4-cyclopropyl-6-{3-[3,3-difluoro-1-(4-methyl-4H-1,2,4-triazol-3-yl)cyclobutyl]phenyl}-1H,6H,7H-pyrrolo[2,3-c]pyridin-7-one] the EC50 [1] was < 0.1 µM and the IC50 [2] was < 0.1 µM.

For `CC(C)n1cnnc1C1(c2cccc(-n3cc(C4CC4)c4cc(CN5CCC[C@H](C)C5)[nH]c4c3=O)c2)CC2(CC2)C1` [Example 145, 4-Cyclopropyl-2-[[(3S)-3-methylpiperidin-1-yl]methyl]-6-[3-[5-(4-propan-2-yl-1,2,4-triazol-3-yl)spiro[2.3]hexan-5-yl]phenyl]-1H-pyrrolo[2,3-c]pyridin-7-one], the EC50 [1] was 1 to 5 µM and the IC50 [2] was < 0.1 µM.

For `CC1CC(c2cccc(-n3cc(C4CC4)c4cc(CN(C)C5CCCC5)[nH]c4c3=O)c2)(c2nncn2C)C1` (stereo not drawn) [Example 47, 2-{[cyclopentyl(methyl)amino]methyl}-4-cyclopropyl-6-{3-[3-methyl-1-(4-methyl-4H-1,2,4-triazol-3-yl)cyclobutyl]phenyl}-1H,6H,7H-pyrrolo[2,3-c]pyridin-7-one], the EC50 [1] was < 0.1 µM and the IC50 [2] was < 0.1 µM.

`Cn1cnnc1[C@]1(c2cccc(-n3cc(C4CC4)c4[nH]c(=O)[nH]c4c3=O)c2)C[C@H](C)C1` (single isomer, unassigned) [Example 117, 7-cyclopropyl-5-[3-[cis-3-methyl-1-(4-methyl-1,2,4-triazol-3-yl)cyclobutyl]phenyl]-1,3-dihydroimidazo[4,5-c]pyridine-2,4-dione] was tested, and the EC50 [1] was > 5 µM and the IC50 [2] was 0.1 to 1 µM.

With `C[C@H]1CCCN(Cc2cc3c(C4CC4)cn(-c4cccc(C(C)(F)c5nncn5C)c4)c(=O)c3[nH]2)C1` (stereo partly drawn) [Example 163, 4-cyclopropyl-6-[3-[1-fluoro-1-(4-methyl-1,2,4-triazol-3-yl)ethyl]phenyl]-2-[[(3S)-3-methylpiperidin-1-yl]methyl]-1H-pyrrolo[2,3-c]pyridin-7-one] the EC50 [1] was < 0.1 µM and the IC50 [2] was < 0.1 µM.

An EC50 [1] of 1 to 5 µM and an IC50 [2] of 0.1 to 1 µM were found for `Cn1cnnc1C1(c2cccc(-n3cc(C4CC4)c4cc(CN5CC[C@@H](F)[C@H](O)C5)[nH]c4c3=O)c2)CC(F)(F)C1` [Example 93, 4-cyclopropyl-6-{3-[3,3-difluoro-1-(4-methyl-4H-1,2,4-triazol-3-yl)cyclobutyl]phenyl}-2-{[(3R,4R)-4-fluoro-3-hydroxypiperidin-1-yl]methyl}-1H,6H,7H-pyrrolo[2,3-c]pyridin-7-one] in this work.

For `C[C@H]1CCCN(Cc2cc3c(C(F)(F)F)cn(-c4cccc(C5(c6nncn6C)CC6(CC6)C5)c4)c(=O)c3[nH]2)C1` [Example 105], the EC50 [1] was < 0.1 µM and the IC50 [2] was < 0.1 µM.

For `Cn1cnnc1C1(c2cccc(-n3cc(C(F)(F)F)c4nc(CN5CCC(F)(F)C5)[nH]c4c3=O)c2)CC(F)(F)C1` [Example 115, 5-[3-[3,3-difluoro-1-(4-methyl-1,2,4-triazol-3-yl)cyclobutyl]phenyl]-2-[(3,3-difluoropyrrolidin-1-yl)methyl]-7-(trifluoromethyl)-3H-imidazo[4,5-c]pyridin-4-one], the EC50 [1] was > 5 µM and the IC50 [2] was 1 to 5 µM.

`O=c1c2[nH]c(CNCC3(O)CCC3)cc2c(C2CC2)cn1-c1cccc([C@]2(c3nncn3C(F)F)C[C@H](OC(F)F)C2)c1` [Example 152, 4-cyclopropyl-2-({[(1-hydroxycyclobutyl)methyl]amino}methyl)-6-(m-{(1r,3r)-3-difluoromethoxy-1-[4-(difluoromethyl)-4H-1,2,4-triazol-3-yl]cyclobutyl}phenyl)-1,6-dihydro-1,6-diaza-7-indenone] was tested, and the EC50 [1] was 1 to 5 µM and the IC50 [2] was < 0.1 µM.

`CC1CC(c2cccc(-n3cc(C4CC4)c4c(C#N)c(CN5CCC[C@H](C)C5)[nH]c4c3=O)c2)(c2nncn2C)C1` (mixture of isomers) [Example 134, 4-Cyclopropyl-2-{[(3S)-3-methylpiperidin-1-yl]methyl}-7-oxo-6-{3-[(1R,3S)-3-methyl-1-(4-methyl-4H-1,2,4-triazol-3-yl)cyclobutyl]phenyl}-1H,6H,7H-pyrrolo[2,3-c]pyridine-3-carbonitrile] was tested, and the EC50 [1] was < 0.1 µM and the IC50 [2] was < 0.1 µM.
